Where two headings read alike, the source gives them in different places.
What was measured:
[1] = system: Champions Tumor Graft models CTG-1171; conditions: cited from earlier work
[2] = system: Champions Tumor Graft models CTG-1171; assay: Anti-tumor effect using cancer patient-derived cells (CTG-1171 PDX, Test Example 2); assay type: in vivo, nude mice (Athymic Nude-Foxn1nu)
Method: Champions Tumor Graft models CTG-1171 (Champions Oncology, Inc.) having the profiles shown in Tables 5-8 were transplanted into Stock mice (Athymic Nude-Foxn1^nu, Envigo). Once the tumor volume of the transplanted tumor reached 1,000-1,500 mm^3, the tumor was taken out and a fragment thereof of about 65 mm^3 was subcutaneously transplanted into the left side of 7-week-old nude mice (Athymic Nude-Foxn1^nu, Envigo). Tumor diameters were measured twice a week with a digital caliper. TV was calculated according to the following equation. TV (mm^3)=Width (mm)^2×Length (mm)×0.52
Ten individuals whose tumor volumes reached 150-300 mm^3 were assigned to each group (Day 0).
(§1) Compound 1 was prepared to have a predetermined concentration with a 0.1N HCl solution, and the resultant was orally administered once a day on Days 0-27 consecutively. Tumor diameters were measured twice a week with a digital caliper. The rate of change in the weight of the mouse was calculated in the same manner as Test example 1 above. Mice observed with weight loss by 10% or more as compared to Day 0 were given DietGel (registered trademark).
The anti-tumor effect of the drug was evaluated according to tumor growth inhibition (TGI), which was calculated by the following equation. TGI=(100%×[1−(TV of treated group on Day 27−TV of treated group on Day 0)/(TV of control group on Day 27−TV of control group on Day 0)])

[3] = system: Human stomach cancer cell line, NCI-N87; assay: Antitumor evaluation in model with tumor recurrence following administration of trastuzumab emtansine (NCI-N87 subcutaneous xenograft); assay type: in vivo, nude mice (BALB/cAJcl-nu/nu); conditions: for TV (mm^3) on Day43 Mean ± SD: Step 2, Day 43, Compound 1 60 mg/kg/day p.o. Days 1-42, trastuzumab emtansine 10 mg/kg/day i.v. Days 1, 22, n=9
Method: Human stomach cancer cell line, NCI-N87, was obtained from American Type Culture Collection (ATCC). The cell line was cultured in a RPMI-1640 medium (containing 4.5 g/L glucose, 10 mM HEPES and 1 mM sodium pyruvate) (Wako Pure Chemical Corporation) containing 10% fetal bovine serum (FBS) at 37° C. in a 5% CO2 incubator.
The NCI-N87 cells were resuspended in PBS to a concentration of 10^8 cells/mL. A 1-mL tuberculin syringe with a 25G needle was used to subcutaneously transplant […] cells/0.1 mL each of the cell suspension into the right chests of 6-week-old nude mice (BALB/cAJcl-nu/nu, CLEA Japan, Inc.).
The tumor diameter was measured with a digital caliper by holding the long diameter and the short diameter of the tumor between the measuring surfaces of the digital caliper for each mouse. Measurements took place at a frequency of once in 2-5 days including the day of group sorting and the day of judgement. The tumor volume (TV) was calculated based on these long and short diameters. The relative tumor volume (RTV) and the rate of change in the relative tumor volume (T/C) were calculated from the calculated tumor volume. TV, RTV and T/C were calculated according to the following equations. Tumor volume TV(mm^3)=(Long diameter, mm)×(Short diameter, mm)×(Short diameter, mm)/2 Relative tumor volume RTV=(TV on day of measurement)/(TV on day of dividing into groups) Rate of change in relative tumor volume T/C (%)=(Mean RTV of treated group)/(Mean RTV of control group)×100
The tumor diameters and weights were measured with time to calculate TV and BWC.
Eighteen nude mice confirmed with tumor recurrence in Step 1 were selected, and 9 animals were assigned to each group by equal distribution (MiSTAT (ver.2.0)) as follows such that the mean TV of each group was uniform (Day 1, i.e., Day 85 as counted from Step 1). Compound 1 was prepared to 6 mg/mL with a 0.1N HCl solution, and the resultant was orally administered once a day on Days 1-42 consecutively. […] The tumor diameters and weights were measured with time to calculate TV and BWC.

[4] = Body weight change / toxicity judgement in CTG-1171 PDX model (Test Example 2); assay type: in vivo; conditions: 60 mg/kg/day p.o. Days 0-27
Method: as §1
In addition, the presence of toxicity was judged as follows: a dose observed with a weight loss of 20% or more or a mortality rate of 10% or more was judged to have exceeded the MTD (maximum tolerated dose) and thus toxicity was present.

[5] = system: Breast cancer (primary), HER2 +; conditions: single patient; neighbouring lines without a result appear to be partners of the same regimen; cited from earlier work
[6] = value on first line of a two-line group (apparent combination): Capecitabine 5 with Lapatinib 1 mg/kg/day, once a day for 21 days p.o., Gemcitabine with Nab-paclitaxel, dose not given

CCCCCOC(=O)Nc1nc(=O)n([C@@H]2O[C@H](C)[C@@H](O)[C@H]2O)cc1F [Capecitabine]
TGI (%) [1, 6]: 96%

C=CC(=O)N1CCC[C@@H](n2nc(C(=O)Nc3ccc(CC(=O)N(C)C)c(C)c3C)c3c(N)ncnc32)C1 [Compound 1, (R)-1-(1-acryloylpiperidine-3-yl)-4-amino-N-(4-(2-(dimethylamino)-2-oxoethyl)-2,3-dimethylphenyl)-1H-pyrazolo[3,4-d]pyrimidine-3-carboxamide]
TV versus control-administered group on Day 27 ([2]; 60 mg/kg/day p.o. Days 0-27): significantly lower
TV (mm^3) on Day0 Mean ± SD ([2]; Day 0 (group assignment, baseline), n=10): 196 ± 22 mm^3
TV (mm^3) on Day27 Mean ± SD ([2]; Day 27, 60 mg/kg/day p.o. Days 0-27, n=10): 162 ± 27 mm^3
TGI (%) ([2]; Day 27 versus Day 0, versus control, 60 mg/kg/day p.o. Days 0-27): 112%
TV versus trastuzumab emtansine-administered group on day of judgement (Day 43) ([3]; Aspin-Welch's t-test, Compound 1 60 mg/kg/day p.o.): significantly lower
T/C (%) ([3]; Day 43, mean TV of Compound 1 group / mean TV of trastuzumab emtansine group × 100, 60 mg/kg/day p.o. Days 1-42): 25.4%
TV (mm^3) on Day43 Mean ± SD [3]: 107.29 ± 37.76 mm^3
decrease of average rate of change in the weight during the administration period [4]: < 5%
judgement of the dose (tolerability) [4]: tolerable
BWG(%) on Day27 Mean ([4]; Day 27): −0.60%

CC(=O)O[C@@]12CO[C@@H]1C[C@H](O)[C@@]1(C)C(=O)[C@H](O)C3=C(C)[C@@H](OC(=O)[C@H](O)[C@@H](NC(=O)OC(C)(C)C)c4ccccc4)C[C@@](O)([C@@H](OC(=O)c4ccccc4)[C@H]21)C3(C)C [Docetaxel]
Result (treatment history before acquiring tumor tissue) [5]: Responded

C=C1C[C@@H]2CC[C@@]34C[C@H]5O[C@H]6[C@@H](O3)[C@H]3O[C@H](CC[C@@H]3O[C@H]6[C@H]5O4)CC(=O)C[C@@H]3[C@@H](OC)[C@@H](C[C@H](O)CN)O[C@H]3C[C@H]3O[C@@H](CC[C@@H]1O2)C[C@@H](C)C3=C [Eribulin]
Result (treatment history after acquiring tumor tissue) [5]: No response

Nc1ccn([C@@H]2O[C@H](CO)[C@@H](O)C2(F)F)c(=O)n1 [Gemcitabine]
TGI (%) [1, 6]: 28%

CS(=O)(=O)CCNCc1ccc(-c2ccc3ncnc(Nc4ccc(OCc5cccc(F)c5)c(Cl)c4)c3c2)o1 [Lapatinib]
Result (treatment history after acquiring tumor tissue) [5]: No response

CO[C@H]1C[C@@H]2CC[C@@H](C)[C@@](O)(O2)C(=O)C(=O)N2CCCC[C@H]2C(=O)O[C@H]([C@H](C)C[C@@H]2CC[C@@H](OC(=O)C(C)(CO)CO)[C@H](OC)C2)CC(=O)[C@H](C)/C=C(\C)[C@@H](O)[C@@H](OC)C(=O)[C@H](C)C[C@H](C)/C=C/C=C/C=C/1C [Temsirolimus]
TGI (%) ([1]; single agents, Nab-paclitaxel 0.5 mg/kg/day once a week for 3 weeks i.v., Temsirolimus 0.5 once a week for 5 weeks i.p., Trastuzumab 15 once a week for 8 weeks i.v., Afatinib dose not given): 59%

Bevacizumab
Result (treatment history before acquiring tumor tissue) [5]: No response

Trastuzumab emtansine
tumor course after administration of trastuzumab emtansine (FIG. 1) ([3]; Step 1, 10 mg/kg/day i.v. on Days 1, 22, 43, 64, n=36): tumor shrinkage was confirmed for once by administration of trastuzumab emtansine but tumor recurrence was confirmed on Day 85
TV (mm^3) on Day43 Mean ± SD [3]: 421.92 ± 143.78 mm^3
Result (treatment history after acquiring tumor tissue) [5]: No response
Result (treatment history before acquiring tumor tissue) [5]: No response
